Patent US20040006070A1, “Intraspinal continuous infusion of midazolam hydrochloride for the treatment of pain” (priority 2002, published 2004)
Structures can show the parent of a compound that is named as a salt.

Key:
Acute Pain Sheep Model = assay: Mechanical stimulus device nociceptive testing (% MPE), acute pain sheep model; assay type: in vivo
Method: Open-label (known dose) trial: A trial with known midazolam doses was performed in the first 7 sheep. Animals were administered 3 mg/day (N=1), 5 mg/day (N=1), 10 mg/day (N=1), and 15 mg/day (N=4) for 43 days. These doses were chosen based upon previous intrathecal bolus dose studies in rats and humans, with conversion of from species to species based on cerebral spinal fluid (CSF) production rate and total CSF volume. Analgesic activity was assessed using a mechanical stimulus device which produces a stimulus of acute pain by application of force via a blunt needle applied to the shaved front foreleg of the animal. Force is applied with increasing pressure until the animal lifts its leg in response to the painful stimulus. To evaluate the analgesic effect of midazolam, response latencies were expressed as a percentage of the maximum possible effect, % MPE. The response latency is defined as follows: [formula]
A mechanical stimulus device was used for the pain stimulus. […] The force applied to the pin was measured by strain gauges that are incorporated into the device on the leg. The output from the strain gauges was recorded on a millivoltmeter in the control box. […] To compare the effects of midazolam, the data were accumulated over the testing period, and all response latencies were expressed as percentage of the maximum possible effect (MPE) where: [formula] […]

[1] = rabbit, intrathecal bolus 0.1% midazolam or preservative-free midazolam in 0.3 ml, one or five days; cited from earlier work

Question: Which results are given for Cc1ncc2n1-c1ccc(Cl)cc1C(c1ccccc1F)=NC2 [Midazolam, midazolam hydrochloride]?
Answer: pain relief (Acute Pain Sheep Model; closed-label study, 5 or 15 mg/day intrathecal): significant pain relief; pain relief (Acute Pain Sheep Model; open-label trial, all treated animals, 5-15 mg/day intrathecal for 43 days): significant pain relief; neurotoxicity [1]: neurotoxicity
